Assays:
[1] = tested on: K562-R cells; assay: Chemosensitizing: metabolic activity of K562-R cells cotreated with imatinib (modified MTT assay); type: cell-based, human; conditions: 72 h
Experimental: (§1) The potential reduction in cell viability was determined using the modified MTT assay.
conc. 10 to 0.5 μM) over 72 h (Figure 3D).
(§2) COS-7 (2 × 10^3 cells per well), IGROV-1 SP (2.5 × 10^3 cells per well), A2780 V SP (1.5 × 10^3 cells per well), PC3-DR (4 × 10^3 cells per well), and DU145-DR (3 × 10^3 cells per well) cells were seeded in 96-well plates in triplicates and after 24 h, the compounds were added at the respective concentrations. K562-R and K562 cells (2 × 10^4 cells per well), were treated with the compounds 2 h after seeding. […] A modified MTT colorimetric assay (EZ4U kit, Biomedica) was used to determine the metabolic activity of the tested cells, according to the manufacturer’s instructions. Absorbance was measured and the optical density of the respective FCS-containing medium and of the substrate was subtracted to exclude nonspecific staining. Metabolic activity in the absence of the compounds (CTR, DMSO) was set to 100% as reference.

[2] = tested on: ABCB1; assay: Jess Simple Western immunoassay of ABCB1 expression in K562-R cells; type: cell-based, human; conditions: 4 μM, 72 h
Experimental: (§3) Protein extracts were prepared as previously described.[44] Protein expression was determined using the capillary-based Jess Simple Western detection system (ProteinSimple, BioTechne) according to the manufacturer’s instructions at default settings. […] Horseradish peroxidase (HRP)-conjugated secondary antirabbit antibody, which was included in the Jess Detection Module kit, was used. Data analysis was conducted using Compass for Simple Western 4.0 software (ProteinSimple, BioTechne).

[3] = tested on: STAT5; assay: Jess Simple Western immunoassay of STAT5/pSTAT5 in K562-R cells; type: cell-based, human; conditions: 4 μM + imatinib 1 μM, 6 h
Experimental: In the next step, the effects of the compounds (4 μM) on STAT5 in K562-R cells were examined.
as §3

[4] = tested on: A2780 V SP cells (ABCB1+); assay: SP analysis (DCV, flow cytometry) in A2780 V SP cells; type: cell-based, human; conditions: 10 μM
Source text: (§4) In recent studies, we described the side population (SP) phenotype as a marker that defines a heterogeneous cellular compartment with stem cell-characteristics in various cancer cell lines derived from solid tumors, such as ovarian cancer, breast cancer, and lung cancer.[26],[27]

[5] = tested on: IGROV-1 SP cells (ABCB1+); assay: SP analysis (DCV, flow cytometry) in IGROV-1 SP cells; type: cell-based, human; conditions: 10 μM
Source text: as §4

[6] = tested on: PC3-DR cells (ABCB1+); assay: SP analysis (DCV, flow cytometry) in PC3-DR cells; type: cell-based, human; conditions: 10 μM
Source text: as §4

[7] = tested on: DU145-DR cells (ABCB1+); assay: SP analysis (DCV, flow cytometry) in DU145-DR cells; type: cell-based, human; conditions: 10 μM
Source text: as §4

[8] = tested on: MCF7 cells (ABCG2+); assay: SP analysis (DCV, flow cytometry) in MCF7 cells; type: cell-based, human; conditions: MCF7, 10 μM
Source text: as §4

[9] = tested on: A549 cells (ABCC1+); assay: SP analysis (DCV, flow cytometry) in A549 cells; type: cell-based, human; conditions: A549, 10 μM
Source text: as §4

[10] = tested on: STAT5; assay: Jess Simple Western immunoassay of STAT5/pSTAT5 in A2780 V SP cells; type: cell-based, human; conditions: 10 μM, 72 h
Experimental: (§5) The impact of STAT5 activation on the mode of action was investigated in selected solid tumor cell lines as well.
as §3

[11] = tested on: STAT5; assay: Jess Simple Western immunoassay of STAT5/pSTAT5 in IGROV-1 SP cells; type: cell-based, human; conditions: 10 μM, 72 h; for STAT5 protein expression: IGROV1 SP
Experimental: as §5, §3

[12] = tested on: STAT5; assay: Jess Simple Western immunoassay of STAT5/pSTAT5 in MCF7 cells; type: cell-based, human; conditions: MCF7, 10 μM, 72 h
Experimental: as §5, §3

[13] = tested on: STAT5; assay: Jess Simple Western immunoassay of STAT5/pSTAT5 in A549 cells; type: cell-based, human; conditions: A549, 10 μM, 72 h
Experimental: as §5, §3

[14] = tested on: A2780 V SP cells; assay: Chemosensitizing to paclitaxel: metabolic activity of A2780 V SP cells (MTT); type: cell-based, human; conditions: compound 10 μM + PTX 10 nM, 72 h
Experimental: (§6) The chemosensitizing efficacy was investigated in the ovarian and prostate cancer cell lines using the above-described metabolic activity assay. Paclitaxel (PTX) served as a reference (CTR) in A2780 V SP and IGROV-1 SP cells and docetaxel (DTX) in PC3-DR and D145-DR cells.
as §2

[15] = tested on: IGROV-1 SP cells; assay: Chemosensitizing to paclitaxel: metabolic activity of IGROV-1 SP cells (MTT); type: cell-based, human; conditions: compound 10 μM + PTX 10 nM, 72 h
Experimental: as §6, §2

[16] = target: T1, ABCB1 transporter in K562-R cells (Homo sapiens, UniProt P08183); assay: Side population (SP) analysis, DCV staining, flow cytometry; conditions: 10 μM
T1 sequence (P08183 whole entry): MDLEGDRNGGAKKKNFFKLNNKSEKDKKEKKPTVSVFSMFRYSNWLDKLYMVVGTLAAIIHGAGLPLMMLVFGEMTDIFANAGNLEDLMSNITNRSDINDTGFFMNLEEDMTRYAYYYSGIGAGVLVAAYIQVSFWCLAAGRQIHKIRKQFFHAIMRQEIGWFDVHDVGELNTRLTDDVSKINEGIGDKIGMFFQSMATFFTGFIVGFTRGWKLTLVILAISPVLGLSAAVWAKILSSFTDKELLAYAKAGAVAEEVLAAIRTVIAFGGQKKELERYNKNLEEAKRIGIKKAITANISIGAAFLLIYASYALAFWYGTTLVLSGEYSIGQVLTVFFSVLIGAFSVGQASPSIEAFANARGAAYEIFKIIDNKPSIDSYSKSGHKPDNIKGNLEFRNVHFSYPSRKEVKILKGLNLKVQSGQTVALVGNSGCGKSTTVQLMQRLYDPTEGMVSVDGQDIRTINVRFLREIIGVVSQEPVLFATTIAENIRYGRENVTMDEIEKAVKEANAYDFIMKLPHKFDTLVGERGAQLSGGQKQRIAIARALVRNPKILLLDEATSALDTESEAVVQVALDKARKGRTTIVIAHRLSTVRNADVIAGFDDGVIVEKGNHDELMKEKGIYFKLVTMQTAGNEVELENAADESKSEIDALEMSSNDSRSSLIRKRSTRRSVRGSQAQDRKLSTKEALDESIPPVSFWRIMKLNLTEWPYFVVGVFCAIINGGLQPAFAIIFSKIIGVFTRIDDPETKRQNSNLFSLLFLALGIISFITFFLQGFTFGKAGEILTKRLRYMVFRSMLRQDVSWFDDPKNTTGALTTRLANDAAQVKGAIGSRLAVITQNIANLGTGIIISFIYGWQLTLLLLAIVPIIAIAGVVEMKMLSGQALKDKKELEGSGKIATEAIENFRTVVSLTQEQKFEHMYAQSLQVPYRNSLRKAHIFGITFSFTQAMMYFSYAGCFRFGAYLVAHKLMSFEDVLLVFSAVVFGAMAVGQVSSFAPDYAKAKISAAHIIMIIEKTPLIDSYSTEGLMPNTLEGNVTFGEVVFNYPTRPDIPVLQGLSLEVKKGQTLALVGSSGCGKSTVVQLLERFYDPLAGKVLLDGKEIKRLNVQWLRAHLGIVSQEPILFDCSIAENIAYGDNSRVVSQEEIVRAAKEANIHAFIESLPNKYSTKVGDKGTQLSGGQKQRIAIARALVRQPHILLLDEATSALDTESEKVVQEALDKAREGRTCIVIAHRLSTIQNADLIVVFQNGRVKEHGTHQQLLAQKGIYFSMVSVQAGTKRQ
Experimental: (§7) SP analyses were performed as previously described[45] on a LSRFortessa flow cytometer (BD Biosciences, Vienna, Austria). Briefly, 1 × 10^6 cells/mL were stained with 10 μM Vybrant DyeCycleTM Violet (DCV; Molecular Probes, Eugene, OR) in the presence or absence of the investigated compounds for 90 min at 37 °C. […] Subsequently, the cells were washed and immediately analyzed using flow cytometry. The FlowJo 9.6 software was used for data analyses (Tree Star Software, Ashland, CA).

[17] = tested on: K562-R cells; assay: Metabolic activity of K562-R cells, compounds alone (modified MTT assay); type: cell-based, human; conditions: 10 μM, 72 h, without imatinib; vehicle control = 100%
Experimental: as §1
First, the compounds (10 μM) were applied alone to evaluate their effects per se.
as §2

[18] = tested on: primary human CML patient samples; assay: Colony forming cell (CFC) assay, primary CML patient samples; type: cell-based; conditions: together with 1 μM of imatinib, once at the beginning of the 14 day assay; compound 10 μM
Source text: Frozen peripheral blood mononuclear cells (PBMC) from TKI naïve CML patients and healthy controls were used for the CFC assay as described previously.[46] Briefly, thawed cells were resuspended a semisolid medium (Enriched MethocCult H4435, Stem Cell Technologies) supplemented with the respective compounds and cultured in small culture dishes for 2 weeks. Colonies were counted using an inverted microscope.

[19] = tested on: PC3-DR cells; assay: Chemosensitizing to docetaxel: metabolic activity of PC3-DR cells (MTT); type: cell-based, human; conditions: compound 10 μM + DTX 12.5 nM, 72 h
Experimental: as §6, §2

[20] = tested on: DU145-DR cells; assay: Chemosensitizing to docetaxel: metabolic activity of DU145-DR cells (MTT); type: cell-based, human; conditions: compound 10 μM + DTX 12.5 nM, 72 h
Experimental: as §6, §2

[21] = target: T1, ABCB1 transporter in K562-R cells; conditions: 90 min, 10 μM
Experimental: as §7

[22] = set-up: method as in PMID 23054986; conditions: cited from earlier work
[23] = set-up: method as in PMID 32759366; conditions: rat hepatocytes ref 30; cited from earlier work
[24] = tested on: ABCB1; set-up: method as in Weiss et al. 38; conditions: ref Weiss et al. 38; cited from earlier work
[25] = not told; cited from earlier work

Row | SMILES | metabolic activity of K562-R cells, combination with imatinib ([1]; compound 10 μM + imatinib 1 μM) | effect on SP phenotype [4] | effect on SP phenotype [5] | effect on SP phenotype [6] | effect on SP phenotype [7] | effect on SP phenotype [8] | effect on SP phenotype [9] | STAT5 protein expression [11] | chemosensitizing to PTX therapy [14] | viability / antimetabolic effect in combination with PTX [15] | further results
1 | CCCc1nc2ccccc2n1Cc1ccc(-c2ccc(C(N)=O)cc2)cc1 [6c, 4′-((2-Propyl-1H-benzo[d]imidazole-1-yl)methyl)-[1,1′-biphenyl]-4-carboxamide] | 8–24% | effectively targeted the SP phenotype | effectively targeted the SP phenotype | effectively targeted the SP phenotype | effectively targeted the SP phenotype | nearly inactive | nearly inactive | significantly suppressed STAT5 | particularly sensitized | increased the antimetabolic effect of PTX | EC50 ([1]; K562-R, + imatinib 1 μM, read-out: SC50 (drug concentration eliciting 50% of the maximum sensitizing effect)): 1.49 µM; ABCB1 protein expression [2]: none of the compounds abrogated the ABCB1 protein expression; phosphorylation of STAT5 [3]: marked repression of the STAT5 phosphorylation; phosphorylation status of STAT5 [10]: efficiently repressed the phosphorylation status of STAT5; phosphorylation status of STAT5 ([11]; IGROV-1 SP): efficiently repressed the phosphorylation status of STAT5; phosphorylation status of STAT5 [12]: efficiently repressed the phosphorylation status of STAT5; phosphorylation status of STAT5 [13]: efficiently repressed the phosphorylation status of STAT5; effect on SP phenotype / ABCB1 activity [16]: efficiently reduced the ABCB1 activity; relation of SP and NSP [16]: about 50%
2 | CCCc1nc2c(C)cc(-c3nc4ccccc4n3C)cc2n1Cc1ccc(-c2ccccc2C(=O)O)cc1 [7a, telmisartan] | 34–58% | only modestly affected | only modestly affected | only modestly affected | only modestly affected | significantly inhibited the SP phenotype | significantly inhibited the SP phenotype | significantly suppressed STAT5 | least active chemosensitizer | increased the antimetabolic effect of PTX | metabolic activity of K562-R cells, compound alone [17]: inactive; metabolic activity of K562-R cells, combination with imatinib ([1]; compound 8 μM + imatinib 1 μM): 55%; number of colonies (CFC) [18]: virtually ineffective; chemosensitizing to DTX (antimetabolic activity) [19]: only marginally increased the antimetabolic activity of DTX; chemosensitizing to DTX (antimetabolic activity) [20]: did not significantly reduce the metabolic activity; percentage of cells within SP gate [21]: 76.0%; reported aqueous solubility [22]: 9.9 µg/mL; CLint [23]: about 23 μL/min/10^6 cells; inhibition of ABCB1 [24]: impeded ABCB1; apparent permeability coefficient (Papp) [25]: 29 10^–6 cms^–1
